From patent publication US7479267B2, “Cell-or organ-differentiation controllers and method of controlling morphogenesis by using the same” (Okayama Prefecture, priority 2000, dated 2009)
Where two headings read alike, the source gives them in different places.

Experiments:
[1] = tested on: Arabidopsis thaliana late-flowering mutant fca; assay type: in vivo
Procedure: (§1) Arabidopsis thaliana late-flowering mutant fca (Accession No. N167) obtained from Arabidopsis Stock Center publicly established at the University of Nottingham (U.K.) and wild type plant Ler (Accession No. NW20) were grown at 23° C. under a day length condition of 16-h light/8-h dark cycle at 100 μE/m^2 light intensity and used in the experiments. As a medium, soil consisting of 2 Vermiculite (Asahi Kogyo), 2 Kureha molding for raising seedlings (KUREHA chemical industry Co., Ltd.) and 1 Vermiculite (Asahi Kogyo), which are stacked in layer as the lower, middle and the upper layers, respectively, was used.
(§2) BSO was dissolved in water at a final concentration of 10^−1M and used as a stock solution. Then, the treatment solutions at 10^−3-10^−7M were prepared from the stock solution (FIGS. 1-3). Two to three plants were placed per a pot (about 40×50 mm) and the treatment solution was added dropwise around the shoot apex at 5 ml/day per a pot. The treatment was performed on day 0 (the initiation date of treatment), 1, 3, 5 and 7, which set of treatments was regarded as one processing.
(§3) Glutathione treatment was performed after dissolving glutathione into the BSO solution at a concentration of 10^−4 M.
(§4) The effect of treatment was estimated based on the number of rosette leaves and the elongation rate of floral stem. […] Cold treatment was performed at 4° C. concurrently with a chemical treatment.
(§5) (3) BSO treatment and glutathione (GSH) treatment was concurrently performed. BSO solution (concentration: 10^−4 M) to which glutathione was added was used in the same manner as described above.
(§6) An aqueous solution of hydrogen peroxide was prepared immediately before use. Two to three plants were placed per a pot (about 40×50 mm). On 17 days after imbibition and thereafter, the treatment solution was added dropwise around the shoot apex at 5 ml/day per a pot. The treatments were performed on day 0 (the initiation date of treatment), 1, 3, 5 and 7, which set of treatments was regarded as one processing. The time of floral transition was compared using the rosette leaf number as an index. […] The values are expressed as mean±standard error.
as §6, with “As a redox-state regulator” for “An aqueous solution”, “cells, KCN or NaN3 was used. KCN or sodium azide” for “hydrogen peroxide”, “use and used at concentrations described in FIG. 6 or 7, respectively.” for “use.”, “mm)” for “mm). On 17 days after imbibition”, “and” for “and thereafter, the”, “pot. KCN or NaN3 treatment was started 17 days after imbibition.” for “pot.”

[2] = tested on: Arabidopsis thaliana wild type plant Ler; assay: Regulation of flowering time in wild type plant Ler; assay type: in vivo
Procedure: as §1, §2, §3, §4, §5

[3] = tested on: Nicotina tabacum L. callus; assay: Regulation of formation of adventitious bud in callus; assay type: cell-based; settings: 0.1 mM BSO, 1 mM GSH or 1 mM GSSG in adventitious formation medium; 3 weeks after induction
Procedure: Nicotina tabacum L. leaves grown aseptically was callused in a callus-inducible medium (an essential medium consisting of 1% agar and Murashige and Skoog medium (MS medium) supplied with 0.1 mg/L benzyladenine (BA) and […] naphthaleneacetic acid (NAA)). The resultant callus was transferred to an adventitious formation medium (an essential medium consisting of 1% agar and Murashige and Skoog medium (MS medium) supplied with 1 mg/L BA and […] NAA). To the adventitious-formation medium, 0.1 mM BSO, 1 mM GSH or 1 mM GSSG (oxidized glutathione) was added as a redox-state regulator. The same medium lacking in supplements was prepared and used as a control medium.

[4] = tested on: Arabidopsis thaliana late-flowering mutant fca; assay type: in vivo; remark: listed apart in the source
Procedure: as §1, §2
The effect of treatment was estimated based on the number of rosette leaves and the elongation rate of floral stem. […]
An aqueous solution of hydrogen peroxide was prepared immediately before use. […] The values are expressed as mean±standard error.

[5] = tested on: Zinnia elegans L. (cv. Scarlet Frame); settings: 60 mM hydrogen peroxide; 2 days after imbibition (FIG. 9)
Procedure: Soft papers were laid in plastic dishes (100×15 mm) and seeded with Zinnia elegans L. (cv. Scarlet Frame) (15 seeds/dish). To the dish was added a solution of hydrogen peroxide up to 15 ml, and allowed to germinate (light condition, 50 μE/m^2, 16-h light/8-h dark cycle; temperature 27° C.). Aqueous solutions each containing hydrogen peroxide at the concentrations indicated in FIG. 9 were prepared immediately before use and applied to the seeds. Observation was performed on 2 days after imbibition (see FIG. 9). In the figure, the concentration of hydrogen peroxide (unit: mM) used in treatment is shown at the right downside of each panel.

[6] = tested on: Arabidopsis thaliana wild type plant Ler; settings: hydrogen peroxide 10^−3M; 23° C.; 1 week after imbibition; microscope
Procedure: Soft papers were laid in plastic dishes (100×15 mm) and seeded with Arabidopsis thaliana wild type plant Ler. To the dish was added 15 ml of an aqueous solution of hydrogen peroxide (10^−3M) for imbibition. Germination was allowed to arise at 23° C. and the root hair formation was observed 1 week after imbibition under a microscope.

[7] = tested on: Glycine max (cv: Tanbaguro); settings: hydrogen peroxide 10^−3M; 23° C.; 1 week after imbibition; microscope
Procedure: Soft papers were laid in plastic dishes (100×15 mm) and seeded with Glycine max (cv: Tanbaguro). To the dish was added 15 ml of an aqueous solution of hydrogen peroxide (10^−3M) for imbibition.

[8] = tested on: Triticum aesivum L. (cv. Shirasagi); settings: 144 hours (6 days) after imbibition; hydrogen peroxide concentrations of FIG. 8
From the text: Soft papers were laid in plastic dishes (100×15 mm), and seeded with Triticum aesivum L. (cv. Shirasagi) or Oryza sativa L. (cv. Nipponbare) (15 seeds/dish). […] In the figure, the values are expressed as mean±standard error.

N[C@@H](CCC(=O)N[C@@H](CS)C(=O)NCC(=O)O)C(=O)O [GSH, glutathione]
transition to flowering at 1 mM GSH ([1]; in vivo): delay of the transition to flowering
transition to flowering with increasing GSH concentration ([1]; in vivo): acceleration of the transition to flowering as GSH concentration increased first
transition to flowering with increasing GSH concentration ([2]; Ler, GSH given concurrently with BSO 10^−4 M, at the time when BSO accelerates flowering (FIG. 3A)): delay of the transition to flowering as GSH concentration increased
Adventitious buds/callus [3]: 2-3 buds/callus

CCCCS(=N)(=O)CCC(N)C(=O)O [BSO, L-buthionine sulfoximine]
flowering time ([1]; fca, BSO treatment started 12 days after imbibition (FIG. 1A)): delayed
rosette leaf number compared with the water treated control group ([1]; fca, BSO treatment started 17 days after imbibition, result 1 week afterward (FIG. 1C)): decreased
bolting ([2]; Ler grown in an agar medium containing BSO just after germination): the bolting was delayed
transition to flowering ([2]; Ler, BSO treatment started 12 days after imbibition (FIG. 1B)): significantly accelerated
elongation rate of floral stem ([4]; fca, BSO treatment started day 17, monitored for several months (FIG. 2)): faster than that of control group
Adventitious buds/callus [3]: 30 or more buds/callus

oxidized glutathione [GSSG]
Adventitious buds/callus [3]: 2-3 buds/callus

OO [hydrogen peroxide]
time of floral transition based on the rosette leaf number ([1]; in vivo): accelerated
elongation rate of floral stem ([4]; in vivo): accelerated
cotyledon opening [5]: occurred earlier
order of emergence of cotyledons and root at germination [5]: cotyledons came out from the pericarp before root did
root hair formation [6]: not in the dish treated with hydrogen peroxide solution
root hair formation [7]: not in the dish treated with hydrogen peroxide solution
cell elongation (length of coleoptile) [8]: cells were elongated
